Data: patent publication US8394355B2, “Use of UTP for the diagnosis of stenoses and other conditions of restricted blood flow” (P2 science Aps, priority 2009, dated 2013)
Values joined by “and” are separate entries in the source; they are usually repeats but may differ in a detail not shown here. Identical values can stand only once. Like-named read-outs stand apart in the source and are kept apart here.

Experiments:
Format in all cases: in vivo
[1] = tested on: coronary arteries in humans with coronary artery disease; experiment: FFR during continuous intracoronary infusion via microcatheter (Example 3); settings: individual patients, 320 μg/min
[2] = Kinetics of UTP in the circulation; settings: for half-life: in the circulation, read-out: terminal half-life (converted)
[3] = tested on: infarct area during acute myocardial infarction; experiment: ADP or UTP infusion during myocardial infarction in pigs (unpublished); settings: infused during acute myocardial infarction, unpublished results
Description: This is clearly in contrast to previous findings, but is more clinically relevant as most cardiac patients are older. […] This conclusion is also supported by another study by the present inventor in pigs where ADP or UTP was infused during myocardial infarction. […] Therefore, the previous assumptions in patent application WO 2007/065437 relating to the regulation of purinergic receptor activity to modulate vascular tone, particularly for treating hemodynamic conditions by overriding vasoconstriction activity, which could potentially have clinical applications for treatment with UTP agonists or antagonists, is incorrect.

SMILES	FFR ([1]; listed as ADO)	half-life ([2]; blood (the circulation))	time to peak ([2]; in vivo)	half-life ([2]; in vivo)	effect on infarct area [3]	FFR [1]
Nc1ncnc2c1ncn2[C@@H]1O[C@H](CO)[C@@H](O)[C@H]1O [adenosine]	0.79 and 0.96 and 0.54 and 0.70 (2×) and 0.95 and 0.86 and 1.02 and 0.89	–	–	–	–	–
O=c1ccn([C@@H]2O[C@H](COP(=O)(O)OP(=O)(O)OP(=O)(O)O)C(O)[C@@H]2O)c(=O)[nH]1 (stereo partly drawn) [UTP, Uridine 5-triphosphate]	–	~0.333 min	5 s	0.333 min	increased the infarct area	0.90 (2×) and 0.89 and 0.72 and 0.77 and 0.86 and 0.56 and 0.69 and 0.84
